{
  "source": "paper PMC4512239",
  "about": "(Clinical cancer research : an official journal of the …, 2015)",
  "experiment": "phase I safety and tolerability",
  "assay_type": "in vivo, human",
  "data": [
    {"compound": "CNC(=O)c1cccc(-c2ccc3c(N4CCOC[C@@H]4C)nc(N4CCOC[C@@H]4C)nc3n2)c1", "note": "[AZD2014]", "values": [
      {"measurement": "grade 3 or above hypercholesterolemia or triglyceridemia", "setting": "50 mg BD cohort", "value": "no grade 3 or above hypercholesterolemia or triglyceridemia was seen"},
      {"measurement": "dose limiting toxicities", "setting": "50 mg BD starting dose, 6 patients", "value": "no DLTs"},
      {"measurement": "nausea, mucositis, diarrhea and vomiting: share of grade 3 or 4", "setting": "50 mg BD, Part A and Part B", "value": "less than 5%"},
      {"measurement": "rash: share of grade 3 or higher", "setting": "50 mg BD, Part A and Part B", "value": "less than 5%"},
      {"measurement": "evaluable patients with dose limiting toxicities", "setting": "70 mg BD", "value": "2/4"},
      {"measurement": "patients with dose limiting toxicities", "setting": "100 mg BD", "value": "4/4"},
      {"measurement": "Anemia, Any grade", "setting": "All 50mg BD solution (N=41)", "value": "7 (17.1) Number (%) of patients"},
      {"measurement": "Anemia, CTCAE grade 1-2", "setting": "All 50mg BD solution (N=41)", "value": "7 (17.1) Number (%) of patients"},
      {"measurement": "Anemia, CTCAE grade >=3", "setting": "All 50mg BD solution (N=41)", "value": "0 Number (%) of patients"},
      {"measurement": "Back pain, Any grade", "setting": "All 50mg BD solution (N=41)", "value": "7 (17.1) Number (%) of patients"},
      {"measurement": "Back pain, CTCAE grade 1-2", "setting": "All 50mg BD solution (N=41)", "value": "6 (14.6) Number (%) of patients"},
      {"measurement": "Back pain, CTCAE grade >=3", "setting": "All 50mg BD solution (N=41)", "value": "1 (2.4) Number (%) of patients"},
      {"measurement": "Constipation, Any grade", "setting": "All 50mg BD solution (N=41)", "value": "13 (31.7) Number (%) of patients"},
      {"measurement": "Constipation, CTCAE grade 1-2", "setting": "All 50mg BD solution (N=41)", "value": "13 (31.7) Number (%) of patients"},
      {"measurement": "Constipation, CTCAE grade >=3", "setting": "All 50mg BD solution (N=41)", "value": "0 Number (%) of patients"},
      {"measurement": "Cough, Any grade", "setting": "All 50mg BD solution (N=41)", "value": "8 (19.5) Number (%) of patients"},
      {"measurement": "Cough, CTCAE grade 1-2", "setting": "All 50mg BD solution (N=41)", "value": "8 (19.5) Number (%) of patients"},
      {"measurement": "Cough, CTCAE grade >=3", "setting": "All 50mg BD solution (N=41)", "value": "0 Number (%) of patients"},
      {"measurement": "Decreased appetite, Any grade", "setting": "All 50mg BD solution (N=41)", "value": "17 (41.5) Number (%) of patients"},
      {"measurement": "Decreased appetite, CTCAE grade 1-2", "setting": "All 50mg BD solution (N=41)", "value": "17 (41.5) Number (%) of patients"},
      {"measurement": "Decreased appetite, CTCAE grade >=3", "setting": "All 50mg BD solution (N=41)", "value": "0 Number (%) of patients"},
      {"measurement": "Diarrhea, Any grade", "setting": "All 50mg BD solution (N=41)", "value": "17 (41.5) Number (%) of patients"},
      {"measurement": "Diarrhea, CTCAE grade 1-2", "setting": "All 50mg BD solution (N=41)", "value": "17 (41.5) Number (%) of patients"},
      {"measurement": "Diarrhea, CTCAE grade >=3", "setting": "All 50mg BD solution (N=41)", "value": "0 Number (%) of patients"},
      {"measurement": "Dry mouth, Any grade", "setting": "All 50mg BD solution (N=41)", "value": "8 (19.5) Number (%) of patients"},
      {"measurement": "Dry mouth, CTCAE grade 1-2", "setting": "All 50mg BD solution (N=41)", "value": "8 (19.5) Number (%) of patients"},
      {"measurement": "Dry mouth, CTCAE grade >=3", "setting": "All 50mg BD solution (N=41)", "value": "0 Number (%) of patients"},
      {"measurement": "Dyspnea, Any grade", "setting": "All 50mg BD solution (N=41)", "value": "7 (17.1) Number (%) of patients"},
      {"measurement": "Dyspnea, CTCAE grade 1-2", "setting": "All 50mg BD solution (N=41)", "value": "5 (12.2) Number (%) of patients"},
      {"measurement": "Dyspnea, CTCAE grade >=3", "setting": "All 50mg BD solution (N=41)", "value": "2 (4.9) Number (%) of patients"},
      {"measurement": "Fatigue, Any grade", "setting": "All 50mg BD solution (N=41)", "value": "32 (78.0) Number (%) of patients"},
      {"measurement": "Fatigue, CTCAE grade 1-2", "setting": "All 50mg BD solution (N=41)", "value": "30 (73.2) Number (%) of patients"},
      {"measurement": "Fatigue, CTCAE grade >=3", "setting": "All 50mg BD solution (N=41)", "value": "2 (4.9) Number (%) of patients"},
      {"measurement": "Hypokalemia, Any grade", "setting": "All 50mg BD solution (N=41)", "value": "6 (14.6) Number (%) of patients"},
      {"measurement": "Hypokalemia, CTCAE grade 1-2", "setting": "All 50mg BD solution (N=41)", "value": "5 (12.2) Number (%) of patients"},
      {"measurement": "Hypokalemia, CTCAE grade >=3", "setting": "All 50mg BD solution (N=41)", "value": "1 (2.4) Number (%) of patients"},
      {"measurement": "Lower respiratory tract infection, Any grade", "setting": "All 50mg BD solution (N=41)", "value": "7 (17.1) Number (%) of patients"},
      {"measurement": "Lower respiratory tract infection, CTCAE grade 1-2", "setting": "All 50mg BD solution (N=41)", "value": "6 (14.6) Number (%) of patients"},
      {"measurement": "Lower respiratory tract infection, CTCAE grade >=3", "setting": "All 50mg BD solution (N=41)", "value": "1 (2.4) Number (%) of patients"},
      {"measurement": "Mucositis, Any grade", "setting": "All 50mg BD solution (N=41)", "value": "20 (48.8) Number (%) of patients"},
      {"measurement": "Mucositis, CTCAE grade 1-2", "setting": "All 50mg BD solution (N=41)", "value": "19 (46.3) Number (%) of patients"},
      {"measurement": "Mucositis, CTCAE grade >=3", "setting": "All 50mg BD solution (N=41)", "value": "1 (2.4) Number (%) of patients"},
      {"measurement": "Nausea, Any grade", "setting": "All 50mg BD solution (N=41)", "value": "21 (51.2) Number (%) of patients"},
      {"measurement": "Nausea, CTCAE grade 1-2", "setting": "All 50mg BD solution (N=41)", "value": "19 (46.3) Number (%) of patients"},
      {"measurement": "Nausea, CTCAE grade >=3", "setting": "All 50mg BD solution (N=41)", "value": "2 (4.9) Number (%) of patients"},
      {"measurement": "Pruritus, Any grade", "setting": "All 50mg BD solution (N=41)", "value": "13 (31.7) Number (%) of patients"},
      {"measurement": "Pruritus, CTCAE grade 1-2", "setting": "All 50mg BD solution (N=41)", "value": "13 (31.7) Number (%) of patients"},
      {"measurement": "Pruritus, CTCAE grade >=3", "setting": "All 50mg BD solution (N=41)", "value": "0 Number (%) of patients"},
      {"measurement": "Rash, Any grade", "setting": "All 50mg BD solution (N=41)", "value": "17 (41.5) Number (%) of patients"},
      {"measurement": "Rash, CTCAE grade 1-2", "setting": "All 50mg BD solution (N=41)", "value": "15 (36.6) Number (%) of patients"},
      {"measurement": "Rash, CTCAE grade >=3", "setting": "All 50mg BD solution (N=41)", "value": "2 (4.9) Number (%) of patients"},
      {"measurement": "Vomiting, Any grade", "setting": "All 50mg BD solution (N=41)", "value": "12 (29.3) Number (%) of patients"},
      {"measurement": "Vomiting, CTCAE grade 1-2", "setting": "All 50mg BD solution (N=41)", "value": "11 (26.8) Number (%) of patients"},
      {"measurement": "Vomiting, CTCAE grade >=3", "setting": "All 50mg BD solution (N=41)", "value": "1 (2.4) Number (%) of patients"},
      {"measurement": "Anemia, Any grade", "setting": "Part A 25mg BD solution (N=6)", "value": "0 Number (%) of patients"},
      {"measurement": "Anemia, CTCAE grade 1-2", "setting": "Part A 25mg BD solution (N=6)", "value": "0 Number (%) of patients"},
      {"measurement": "Anemia, CTCAE grade >=3", "setting": "Part A 25mg BD solution (N=6)", "value": "0 Number (%) of patients"},
      {"measurement": "Back pain, Any grade", "setting": "Part A 25mg BD solution (N=6)", "value": "0 Number (%) of patients"},
      {"measurement": "Back pain, CTCAE grade 1-2", "setting": "Part A 25mg BD solution (N=6)", "value": "0 Number (%) of patients"},
      {"measurement": "Back pain, CTCAE grade >=3", "setting": "Part A 25mg BD solution (N=6)", "value": "0 Number (%) of patients"},
      {"measurement": "Constipation, Any grade", "setting": "Part A 25mg BD solution (N=6)", "value": "2 (33.3) Number (%) of patients"},
      {"measurement": "Constipation, CTCAE grade 1-2", "setting": "Part A 25mg BD solution (N=6)", "value": "2 (33.3) Number (%) of patients"}
    ]}
  ]
}
